Measurements taken from patent publication US20030228672A1, “Sorbitol dehydrogenases of ketogulonigenium species, genes and methods of use thereof” (priority 2002, published 2003).

B1: SDH2: sorbitol dehydrogenase of K. robustum ADM 86-96, 579 amino acids (SEQ ID NO:7) (protein, listed as Ketogulonigenium sp.)
chain: MKTKSFLFAGVAALASYGTIALADVTPVTDELLANPPAGEWISYGRNQENYRHSPLNQITPENVGQLQLVWARGMNAGKVQVTPLIHDGVMYLANPGDIIQAIDAKTGDLIWEHRRQLPNVATLNSFGEPIRGIALYGTNVYFVSWDNHLVALDAATGQVTFDVDRGQGEDMVSNSSGPIVANGVIVAGSTCQYSPFGCFVSGHDATTGEELWRNYFIPKAGEEGDETWGNDYEARWMTGVWGQITYDPVTNLVFYGSSAVGPASETQRGTTGGTMYGTNTRFAVRPDTGEIVWRHQTLPRDNWDQECTFEMMVANVDVQPSADMDGLKSINPNAATGERRVLTGVPCKTGTMWQFDAETGEFLWARDTNYQNMISSIDETGLVTVNEDIILKDLDTDYRICPTFLGGRDWPSASLNPDSGIYFIPLNNACADLAAVDQEFTAMDVYNTSATYLLAPEKENMGRIDAIDISTGKTLWSVERLASNYSPVLSTAGGVLFNGGSDRYFRALSEETGETLWQTRLATVASGQAVSYELDGVQYIAIAGGGTTYGAVQNRPLAEPVDSTSIGNAVYVFALPQQ

What was measured:
[1] = system: dehydrogenase enzyme activity in cellular fractions; assay: Enzyme assays with cellular fractions employing nicotinamide cofactors; type: biochemical, K. robustum ADM X6L and Ketogulonigenium sp. ADM 291-19; settings: different substrates, either strain
purified SDH enzymes = assay: Activity of the purified SDH enzymes toward substrates; type: biochemical, K. robustum ADM X6L and Ketogulonigenium sp. ADM 291-19; settings: purified SDH enzymes of both strains
Description: (§1) First, the periplasmic proteins from the cells of K. robustum ADM X6L and Ketogulonigenium sp. ADM 291-19 obtained in Step 1 of Example 1 were prepared by osmotic shock fractionation as described in Step 3 of Example 1. About 50 ml of osmotic shock fluid containing periplasmic proteins was loaded onto a DEAE-TSK 650 (S) (Merck) column (2.5×15 cm) previously equilibrated with 10 mM Tris·HCl buffer (pH 8.0). The column was first washed with 80 ml of 10 mM Tris·HCl buffer (pH 8.0) containing 0.1 M NaCl, followed by a gradient elution with 600 ml of the same buffer containing 0.1-0.5 M NaCl. Fractions containing 5 ml of eluant were collected and assayed for the SDH enzyme activities with D-sorbitol, L-sorbose and glyoxal as substrate. […] At about 0.15 M NaCl, eluted red fractions that probably contained cytochrome c.
(§2) Active fractions eluted from DEAE column were pooled and further purified by gel filtration column chromatography. The active fractions were concentrated by about 20 fold with ultrafiltration in Centricon 30 (Amicon). The concentrate was loaded onto Superose 12 (Pharmacia) and eluted isocratically with 50 mM sodium phosphate buffer (pH 7.0) containing 0.15 M NaCl.
(§3) The purified enzymes were active toward D-sorbitol, L-sorbose and glyoxal.

[2] = system: dehydrogenase enzyme activity (SDH) of Ketogulonigenium sp. ADM 291-19; assay: Enzyme activity in cellular fractions, Ferric-Dupanol method (localization); type: biochemical
Description: (§4) Cells were harvested by centrifugation at 12,000 g for 10 min, washed once with 10 mM Tris·HCl buffer (pH 8.0) and disrupted by sonication in a Branson Sonifier 450 for 15 min at 50% duty cycle in ice. The homogenate thus prepared was centrifuged at 12,000 g for 5 min to remove the cell debris. The resulting supernatant was centrifuged at 100,000 g for 90 min to get the supernatant as soluble fraction and the precipitate as crude membrane fraction. The crude membrane fraction was solubilized with 1.5% n-octyl glucoside by stirring for 2 hours at 4° C. The resultant suspension was centrifuged at 12,000 g for 10 min to give a supernatant, designated as solubilized membrane fraction.
(§5) Enzyme activity was determined also by the Ferric-Dupanol method (Wood, W. A. et al., Meth. Enzymol., 5, 287 (1962)). The enzyme was preincubated for 5 min at 25° C. The reaction was started by addition of 10 mM (final conc.) potassium ferricyanide and 250 mM (final conc.) D-sorbitol, L-sorbose, or glyoxal. After an appropriate time, the reaction was stopped by adding the ferric sulfate-Dupanol solution (Fe2(SO4)3.nH2O 5 g/l, Dupanol (sodium lauryl sulfate) 3 g/l and 85% phosphoric acid 95 ml/l) and the absorbance of the Prussian color developed was determined at 660 nm in a spectrophotometer.
(§6) Enzyme activities towards D-sorbitol, L-sorbose and glyoxal in different cellular fractions were determined for enzyme localization in K. robustum ADM X6L and Ketogulonigenium sp. ADM 291-19. In both cases, most of the enzyme activity detected in crude cell extract was found in the soluble fraction and the activity in solubilized membrane fraction was negligible when assayed with Ferric-Dupanol method.

[3] = system: dehydrogenase enzyme activity (SDH) of K. robustum ADM X6L; assay: as above; type: biochemical, Ketogulonigenium robustum ADM X6L
Description: as §4, §5, §6

[4] = system: purified SDH of Ketogulonigenium sp. ADM 291-19; assay: Substrate specificity of purified SDH, PMS-DCIP method; type: biochemical; settings: substrate 250 mM, 1-Propanol = 100
Description: The dehydrogenase enzyme activity was assayed spectrophotometrically using 2,6-dichlorophenol indophenol (DCIP) as an artificial electron acceptor and phenazine methosulphate (PMS) as an electron mediator. […] The rate of decrease in absorbance at 522 nm was determined. One unit of enzyme activity was defined as the amount of enzyme catalyzing reduction of 1 μmol of DCIP per minute.
as §1, §2, §3

SDH = SDH activities in osmotic shock fractions, PMS-DCIP method; type: biochemical; settings: for SDH activity, Osmotic Shock Fluid: Osmotic Shock Fluid (periplasmic fraction); for SDH activity, Pellet Sonicate: Pellet Sonicate (cytoplasm and cytoplasmic membrane); for SDH activity, Tris-Sucrose Wash: Tris-Sucrose Wash (periplasmic fraction)
Description: (§7) For more detailed localization study, periplasmic fraction was enriched by the method of osmotic shock (Neu, H. C. and Heppel, L. A., J. Biol. Chem., 240:3685 (1965)). Wet cells were resuspended at about 0.1 g/ml in 20% sucrose-0.03 M Tris·HCl buffer (pH 8.0) at room temperature. Di-sodium EDTA was added to 1 mM and the flask was shaken at 180 rpm at room temperature for 10 min. After centrifugation at 16,000 g for 20 min at 4° C., the supernatant was removed and the pellet was rapidly mixed with cold distilled water of the same volume as the original cell suspension and shaken in ice bucket in a shaker for 10 min. The mixture was centrifuged again to obtain the supernatant called “osmotic shock fluid”. The pellet was sonicated in the same buffer, centrifuged and the supernatant was obtained as “pellet sonicate”.
(§8) The dehydrogenase enzyme activity was assayed spectrophotometrically using 2,6-dichlorophenol indophenol (DCIP) as an artificial electron acceptor and phenazine methosulphate (PMS) as an electron mediator. The reaction mixture contained 50 mM Tris·HCl buffer (pH 8.0), 10 mM MgCl2, 5 mM CaCl2, 5 mM KCN, 0.1 mM PMS, 0.12 mM DCIP, a substrate as D-sorbitol (250 mM), L-sorbose (250 mM) or glyoxal (50 mM) and enzyme solution in a total volumn of 1.0 ml. The rate of decrease in absorbance at 522 nm was determined. One unit of enzyme activity was defined as the amount of enzyme catalyzing reduction of 1 μmol of DCIP per minute.
(§9) For further localization of the enzymes to periplasm or cytoplasm, periplasm was enriched by osmotic shock method as described in Step 3 of Example 1. In this method, the Tris-Sucrose wash and the osmotic shock fluid represent the periplasmic fraction and the pellet sonicate represents the cytoplasm and the cytoplasmic membrane. […] The remaining activity in pellet sonicate could be due to the incomplete release of periplasm by osmotic shock. Typical enzyme activity assay for SDH and β-galactosidase for fractions obtained by osmotic shock fractionation is shown in Table 3.

[5] = system: purified SDH of K. robustum ADM X6L; assay: Substrate specificity of purified SDH, PMS-DCIP method; type: biochemical, Ketogulonigenium robustum ADM X6L; settings: substrate 250 mM, 1-Propanol = 100
Description: as §8, §1, §2, §3

β-galactosidase = assay: β-Galactosidase activity in osmotic shock fractions (intracellular enzyme marker); type: biochemical; settings: High Sensitivity β-Galactosidase Assay Kit
Description: as §7, §9

[6] = system: K. robustum ADM X6L transformants; assay: Bioconversion of D-sorbitol by transformants, HPLC of culture supernatant; type: cell-based, Ketogulonigenium robustum ADM X6L; settings: D-sorbitol as substrate
Description: (§10) For expression of the three SDH genes in K. robustum strains, the genes with their own promoters were subcloned into the vector, pXH2/K5. These plasmids were transformed into the strains, K. robustum ADM X6L and 86-96 (NRRL B-21630), by electroporation. In this case, gene dosage effect may be expected due to the apparent high copy number of the plasmid pXH2/K5. The transformants were analyzed by HPLC for improved conversion activity upon overexpression of each SDH gene using D-sorbitol and L-sorbose as substrate.
(§11) The effect of overexpression of the three SDH genes in bioconversion activity was analyzed by HPLC analysis of the product profile of the culture supernatant of transformants in a medium containing D-sorbitol or L-sorbose as substrate. The transformants were cultivated overnight in RM medium containing 20 μg/ml of Kanamycin. This overnight culture was used to inoculate the 25 ml RM medium (supplemented with 20 μg/ml of Kanamycin) containing 20 g/l of D-sorbitol or 20 g/l of L-sorbose as substrate instead of mannitol. The culture supernatant samples were taken in a 12-hour interval and were analyzed by HPLC (Gilson HPLC with RI detector (ERC-7515A, ERC Inc.)) equipped with Asted XL automatic sample injector. Samples were loaded on two 2 mm×300 mm×7.8 mm Aminex HPX-87H columns (BioRad) arranged in series to provide a total column length of 600 mm. The column was run at 50° C. at a flow rate of 0.5 ml/min. The peaks were identified and the concentration was determined by comparison with those of the standards using glycerol as internal standard.
K. robustum ADM X6L transformants harboring the pXSDH1, pXSDH2 or pXSDH3 were cultivated with D-sorbitol or L-sorbose as substrate. HPLC analysis of the products from D-sorbitol (Table 10) or L-sorbose (Table 11) is shown below. A transformant harboring pXH2 served as control.

[7] = system: K. robustum ADM X6L transformants; assay: Bioconversion of L-sorbose by transformants, HPLC of culture supernatant; type: cell-based, Ketogulonigenium robustum ADM X6L
Description: as §10
as §11, with “Samples were loaded on two 2 mm×300 mm×7.8 mm Aminex HPX-87H columns (BioRad) arranged in series to provide a total column length of 600 mm. The column was run at 50° C. at a flow rate of 0.5 ml/min.” left out, “standard. […]” for “standard.”

Molecule	nicotinamide cofactor dependence (in words) [1]	activity of the purified enzymes toward the substrate (in words) (purified SDH enzymes)	enzyme activity, Cell Free Extract [2]	enzyme activity, Membrane Fraction [2]	enzyme activity, Soluble Fraction [2]	enzyme activity, Cell Free Extract [3]	enzyme activity, Membrane Fraction [3]	enzyme activity, Soluble Fraction [3]	% relative activity, ADM291-19 [4] [%]	SDH activity, Osmotic Shock Fluid (SDH)	SDH activity, Pellet Sonicate (SDH)	SDH activity, Tris-Sucrose Wash (SDH)	% relative activity, ADM X6L [5] [%]	also measured
NC(=O)c1ccc[n+]([C@@H]2O[C@H](COP(=O)([O-])OP(=O)(O)OC[C@H]3O[C@@H](n4cnc5c(N)ncnc54)[C@H](O)[C@@H]3O)[C@@H](O)[C@H]2O)c1 [AND]	did not show any sign of nicotinamide cofactor dependence	–	–	–	–	–	–	–	–	–	–	–	–	–
O=C(CO)[C@@H](O)[C@H](O)[C@@H](O)CO [L-sorbose]	–	active	0.55 ΔOD/min/2 μl enzyme	0.00 ΔOD/min/2 μl enzyme	0.53 ΔOD/min/2 μl enzyme	0.64 ΔOD/min/4 μl enzyme	0.01 ΔOD/min/4 μl enzyme	0.61 ΔOD/min/4 μl enzyme	8.8	0.20 ΔOD/min/50 μl enzyme	0.43 ΔOD/min/50 μl enzyme	0.14 ΔOD/min/50 μl enzyme	8.7	–
NC(=O)c1ccc[n+]([C@@H]2O[C@H](COP(=O)([O-])OP(=O)(O)OC[C@H]3O[C@@H](n4cnc5c(N)ncnc54)[C@H](OP(=O)(O)O)[C@@H]3O)[C@@H](O)[C@H]2O)c1 [NADP]	did not show any sign of nicotinamide cofactor dependence	–	–	–	–	–	–	–	–	–	–	–	–	–
O=S1(=O)OC(c2ccc(O)c(Cl)c2)(c2ccc(O[C@@H]3O[C@H](CO)[C@H](O)[C@H](O)[C@H]3O)c(Cl)c2)c2ccccc21 (stereo partly drawn) [chlorophenol red-β-D-galactopyranoside]	–	–	–	–	–	–	–	–	–	–	–	–	–	β-Galactosidase Activity, Osmotic Shock Fluid (β-galactosidase; Osmotic Shock Fluid): 0.057 nmol/min; β-Galactosidase Activity, Pellet Sonicate (β-galactosidase; Pellet Sonicate): 2.2 nmol/min; β-Galactosidase Activity, Tris-Sucrose Wash (β-galactosidase; Tris-Sucrose Wash): 0.043 nmol/min
O=CC=O [glyoxal]	–	active	0.61 ΔOD/min/2 μl enzyme	0.00 ΔOD/min/2 μl enzyme	0.52 ΔOD/min/2 μl enzyme	0.39 ΔOD/min/4 μl enzyme	0.00 ΔOD/min/4 μl enzyme	0.50 ΔOD/min/4 μl enzyme	16.1	0.43 ΔOD/min/50 μl enzyme	0.76 ΔOD/min/50 μl enzyme	0.36 ΔOD/min/50 μl enzyme	15.1	–
B1	–	–	–	–	–	–	–	–	–	–	–	–	–	products formed upon overexpression with D-sorbitol as substrate (in words) [6]: formation of 2-keto-D-gluconic acid (2KDG) as well as 2KLG; improvement of 2KLG production from L-sorbose upon overexpression ([7]; flask scale experiment, versus pXH2 control): 2-3 times; 2KLG production from L-sorbose upon overexpression (in words) ([7]; flask scale experiments): significantly improved
